According to PubChem BioAssay (NCI):
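Test compounds were applied to cells in 96-well plates for 48 hours at 5 doses. TGI denotes the concentration required for complete inhibition of growth.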

Columns and labels:
Assay in all cases: NCI-60 cell line screen, 48 h
HCT-116 colon = system: HCT-116 colon
U251 CNS = system: U251 CNS
PC-3 prostate = system: PC-3 prostate
T-47D breast = system: T-47D breast
HCC-2998 colon = system: HCC-2998 colon
SN12C renal = system: SN12C renal
TK-10 renal = system: TK-10 renal
ACHN renal = system: ACHN renal
HT29 colon = system: HT29 colon
HOP-92 NSCLC = system: HOP-92 NSCLC
EKVX NSCLC = system: EKVX NSCLC
COLO 205 colon = system: COLO 205 colon

| SMILES | TGI (HCT-116 colon) [µM] | TGI (U251 CNS) [µM] | TGI (PC-3 prostate) [µM] | TGI (T-47D breast) [µM] | TGI (HCC-2998 colon) [µM] | TGI (SN12C renal) [µM] | TGI (TK-10 renal) [µM] | TGI (ACHN renal) [µM] | TGI (HT29 colon) [µM] | TGI (HOP-92 NSCLC) [µM] | TGI (EKVX NSCLC) [µM] | TGI (COLO 205 colon) [µM] |
| --- | --- | --- | --- | --- | --- | --- | --- | --- | --- | --- | --- | --- |
| C=C(NC(=O)C(=C)NC(=O)c1csc(C2=NC3c4csc(n4)C4NC(=O)c5csc(n5)C(C(C)(O)C(C)O)NC(=O)C5CSC(=N5)/C(=C/C)NC(=O)C(C(C)O)NC(=O)c5csc(n5)C3(CC2)NC(=O)C(C)NC(=O)C(=C)NC(=O)C(=C)NC(=O)C(C(C)C)NC2C=Cc3c(C(C)O)cc(nc3C2O)C(=O)OC4C)n1)C(N)=O (stereo unspecified) | 2.64 | > 40.2 | > 100 | 25 | > 58.1 | > 38 | > 94.8 | > 61.2 | 16 | 40.1 | > 100 | > 100 |
| c1cc(-c2cscc2-c2ccsc2)cs1 | > 100 | > 100 | > 100 | > 100 | 91.8 | > 100 | > 100 | > 100 | > 100 | > 100 | > 100 | > 100 |
| NC1=CN(CCCO)C2=N/C(=C\c3ccco3)C(=O)N12 | > 100 | > 100 | > 100 | > 100 | > 100 | > 100 | > 100 | > 100 | > 100 | > 100 | > 100 | > 100 |
